Results on 29 molecules are retold here after ChEMBL document CHEMBL4038289, “Y-shaped bis-arylethenesulfonic acid esters: Potential potent and membrane permeable protein tyrosine phosphatase 1B inhibitors” (Bioorg Med Chem Lett, 2017).

The target of data set [1] is T1, Tyrosine-protein phosphatase non-receptor type 1 (Homo sapiens, UniProt P18031).
T1 sequence (P18031 whole entry): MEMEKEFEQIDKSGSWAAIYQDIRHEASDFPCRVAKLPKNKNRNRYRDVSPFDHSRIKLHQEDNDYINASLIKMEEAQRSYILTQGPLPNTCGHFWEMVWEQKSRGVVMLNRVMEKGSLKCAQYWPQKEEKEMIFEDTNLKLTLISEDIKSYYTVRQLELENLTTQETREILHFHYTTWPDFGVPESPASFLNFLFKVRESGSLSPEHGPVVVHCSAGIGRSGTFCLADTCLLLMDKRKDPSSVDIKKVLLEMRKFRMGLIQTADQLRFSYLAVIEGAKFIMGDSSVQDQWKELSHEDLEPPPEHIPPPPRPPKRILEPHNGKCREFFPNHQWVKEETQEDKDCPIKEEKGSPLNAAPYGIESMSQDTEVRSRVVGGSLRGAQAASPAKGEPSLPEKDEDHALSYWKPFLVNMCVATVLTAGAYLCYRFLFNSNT
As to the kind of experiment: Inhibition of recombinant PTP1B (unknown origin) expressed in Escherichia coli using pNPP as substrate measured after 30 mins.

The target in data set [2] is T2, Tyrosine-protein phosphatase non-receptor type 2 (Homo sapiens, UniProt P17706).
T2 sequence (P17706 whole entry): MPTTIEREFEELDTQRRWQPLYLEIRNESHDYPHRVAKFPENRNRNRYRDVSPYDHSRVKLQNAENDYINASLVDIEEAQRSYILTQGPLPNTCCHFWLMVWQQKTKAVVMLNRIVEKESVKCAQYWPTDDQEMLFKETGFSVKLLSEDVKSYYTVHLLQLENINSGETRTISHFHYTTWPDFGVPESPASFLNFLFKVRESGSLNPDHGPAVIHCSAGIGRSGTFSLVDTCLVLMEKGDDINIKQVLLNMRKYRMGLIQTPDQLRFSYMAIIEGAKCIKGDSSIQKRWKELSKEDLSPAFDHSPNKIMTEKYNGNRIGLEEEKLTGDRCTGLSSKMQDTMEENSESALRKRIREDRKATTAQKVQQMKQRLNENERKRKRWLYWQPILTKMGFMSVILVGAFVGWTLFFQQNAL
As to the kind of experiment: Inhibition of recombinant TCPTP (unknown origin) using pNPP as substrate measured after 30 mins.

Data set [3] addresses T3, Tyrosine-protein phosphatase non-receptor type 11 (Homo sapiens, UniProt Q06124).
T3 sequence (Q06124 whole entry): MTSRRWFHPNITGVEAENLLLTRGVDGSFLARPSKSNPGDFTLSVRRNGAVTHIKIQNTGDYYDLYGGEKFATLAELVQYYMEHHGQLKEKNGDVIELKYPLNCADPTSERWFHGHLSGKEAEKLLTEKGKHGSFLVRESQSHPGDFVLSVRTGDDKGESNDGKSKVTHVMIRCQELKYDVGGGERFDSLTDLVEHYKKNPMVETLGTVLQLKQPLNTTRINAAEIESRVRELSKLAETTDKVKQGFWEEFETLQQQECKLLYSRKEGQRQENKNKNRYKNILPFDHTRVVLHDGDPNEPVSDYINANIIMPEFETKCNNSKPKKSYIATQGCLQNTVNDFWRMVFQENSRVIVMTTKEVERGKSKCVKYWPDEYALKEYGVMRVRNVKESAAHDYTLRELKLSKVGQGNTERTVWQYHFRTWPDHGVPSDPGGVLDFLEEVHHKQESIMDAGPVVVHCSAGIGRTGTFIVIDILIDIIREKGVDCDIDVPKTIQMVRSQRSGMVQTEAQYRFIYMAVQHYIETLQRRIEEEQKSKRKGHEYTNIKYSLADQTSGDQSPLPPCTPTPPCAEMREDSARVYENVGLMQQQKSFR
The experiment in a line: Inhibition of recombinant SHP2 (unknown origin) using pNPP as substrate measured after 30 mins.

Data set [4] can be described thus: Apparent permeability of compound at 20 uM at pH 7.4 after 16 hrs by PAMPA. The data set is classed as physicochemical. In general terms: In PAMPA a lipid-coated filter parts donor from acceptor wells.
Data set [5] is filed under the species Homo sapiens. The experiment in a line: Selectivity ratio of IC50 for recombinant TCPTP (unknown origin) to IC50 for recombinant PTP1B (unknown origin) expressed in Escherichia coli.
The species entered for data set [6] is Homo sapiens. As to the kind of experiment: Selectivity ratio of IC50 for recombinant SHP2 (unknown origin) to IC50 for recombinant PTP1B (unknown origin) expressed in Escherichia coli.

As for `CCOS(=O)(=O)/C=C/c1ccc(OCc2ccc(COc3ccc(/C=C/S(=O)(=O)OCC)cc3)c(C(=O)Nc3ccc(Oc4ccc(-c5ccccc5)cc4)cc3)c2)cc1`, the IC50 in data set [1] worked out at 0.14 µM; in data set [2], 1.29 µM; in data set [3], 0.92 µM. Moreover, the apparent permeability coefficient (Papp) at 16 h, 20 µM in data set [4] is 97 nm/s. In addition, the values for the Ratio IC50 in the data set listed under Homo sapiens [5] and in the data set filed under Homo sapiens [6] were 5 to 9 and 5 to 6, respectively.

Consider `CCOS(=O)(=O)/C=C/c1ccc(OCc2ccc(COc3ccc(/C=C/S(=O)(=O)OCC)cc3)c(C(=O)Nc3ccc(Oc4ccc(Br)cc4Cl)cc3)c2)cc1`, for which the IC50 was determined as 0.16 µM in data set [1], 1.43 µM in data set [2] and 1.05 µM in data set [3]. The Papp at 16 h, 20 µM in data set [4] worked out at 126 nm/s. Also, the results for the Ratio IC50 in the data set listed under Homo sapiens [5] and in the data set listed under Homo sapiens [6] were 5 to 9 and 5 to 6, respectively.

Turning to `CCOS(=O)(=O)/C=C/c1ccc(OCc2ccc(COc3ccc(/C=C/S(=O)(=O)OCC)cc3)c(C(=O)Nc3ccc(Oc4ccc5ccccc5c4)cc3)c2)cc1`, the IC50 in data set [1] was found to be 0.79 µM.

With `CCOS(=O)(=O)/C=C/c1ccc(OCc2ccc(COc3ccc(/C=C/S(=O)(=O)OCC)cc3)c(C(=O)Nc3ccc(Oc4ccc(CC)cc4)cc3)c2)cc1`, the values for the IC50 in data set [1], in data set [2] and in data set [3] were 0.19 µM, 1.32 µM and 1.1 µM, respectively. The apparent permeability coefficient (Papp) at 16 h, 20 µM in data set [4] was found to be 85 nm/s. The values for the Ratio IC50 in the data set listed under Homo sapiens [5] and in the data set filed under Homo sapiens [6] were 5 to 9 and 5 to 6, respectively.

As for `CCOS(=O)(=O)/C=C/c1ccc(OCCCOc2ccc(/C=C/S(=O)(=O)OCC)cc2)cc1`, in data set [1], the half-inhibitory concentration (IC50) was determined as 37.3 µM.

As to `CCOS(=O)(=O)/C=C/c1ccc(OCOc2ccc(/C=C/S(=O)(=O)OCC)cc2)cc1`, the 50% inhibitory concentration (IC50) in data set [1] was 8.7 µM.

For `CCOS(=O)(=O)/C=C/c1ccc(OCc2ccc(COc3ccc(/C=C/S(=O)(=O)OCC)cc3)c(C(=O)Nc3ccc(Oc4ccc(C(F)(F)F)cc4)cc3)c2)cc1`, the 50% inhibitory concentration (IC50) in data set [1] was 0.82 µM.

Take `CCOS(=O)(=O)/C=C/c1ccc(OCc2ccc(COc3ccc(/C=C/S(=O)(=O)OCC)cc3)c(C(=O)Nc3ccc(Oc4ccc(C(C)(C)C)cc4)cc3)c2)cc1`: the IC50 in data set [1] worked out at 0.91 µM.

As to `CCOS(=O)(=O)/C=C/c1ccc(OCCOc2ccc(/C=C/S(=O)(=O)OCC)cc2)cc1`, the IC50 in data set [1] amounted to 3 µM.

As to `CC(C)NCC(O)COc1cccc2ccccc12` (stereo not given) [PROPRANOLOL], in data set [4], the Papp at 16 h, 20 µM came out at 187 nm/s.

In the case of `CCOS(=O)(=O)/C=C/c1ccc(OCc2cccc(COc3ccc(/C=C/S(=O)(=O)OCC)cc3)c2)cc1`, the half-inhibitory concentration (IC50) in data set [1] worked out at 18.4 µM.

Take `CCOS(=O)(=O)/C=C/c1ccc(OCc2ccc(COc3ccc(/C=C/S(=O)(=O)OCC)cc3)c(C(=O)Nc3ccc(F)cc3)c2)cc1`: in data set [1], the concentration for half-maximal inhibition (IC50) was 1.1 µM.

Take `CCOS(=O)(=O)/C=C/c1ccc(OCCCCOc2ccc(/C=C/S(=O)(=O)OCC)cc2)cc1`: the concentration for half-maximal inhibition (IC50) in data set [1] was greater than 100 µM.

Turning to `CCOS(=O)(=O)/C=C/c1ccc(OCc2ccc(COc3ccc(/C=C/S(=O)(=O)OCC)cc3)c(C(=O)Nc3ccc(Oc4ccc(C(C)C)cc4)cc3)c2)cc1`, the concentration for half-maximal inhibition (IC50) in data set [1] was 0.75 µM.

As to `CCOS(=O)(=O)/C=C/c1ccc(Oc2ccc(/C=C/S(=O)(=O)OCC)cc2)cc1`, in data set [1], the IC50 amounted to 11.8 µM.

Consider `CCOS(=O)(=O)/C=C/c1ccc(OCc2ccc(COc3ccc(/C=C/S(=O)(=O)OCC)cc3)c(C(=O)O)c2)cc1`, for which the IC50 in data set [1] amounted to 1.3 µM.

Take `CCOS(=O)(=O)/C=C/c1ccc(OCc2ccc(COc3ccc(/C=C/S(=O)(=O)OCC)cc3)c(C(=O)Nc3ccc(OC)cc3)c2)cc1`: the IC50 in data set [1] is 2.6 µM.

`CCOS(=O)(=O)/C=C/c1ccc(OCc2ccc(COc3ccc(/C=C/S(=O)(=O)OCC)cc3)c(C(=O)Nc3ccc(Oc4cccc(C(F)(F)F)c4)cc3)c2)cc1`: the concentration for half-maximal inhibition (IC50) in data set [1] came to 0.35 µM; in data set [2] it was 1.62 µM; in data set [3] it was 1.7 µM. For the same molecule, the apparent permeability (Papp) at 16 h, 20 µM in data set [4] was determined as 69 nm/s. In addition, the Ratio IC50 lay in the range of 5 to 9 in the data set listed under Homo sapiens [5] and 5 to 6 in the data set listed under Homo sapiens [6].

Turning to `CCOS(=O)(=O)/C=C/c1ccc(OCc2ccc(COc3ccc(/C=C/S(=O)(=O)OCC)cc3)c(C(=O)Nc3ccc(Oc4ccccc4C(F)(F)F)cc3)c2)cc1`, in data set [1], the IC50 was found to be 0.87 µM.

Turning to `CCOS(=O)(=O)/C=C/c1ccc(OCc2ccc(COc3ccc(/C=C/S(=O)(=O)OCC)cc3)c(C(=O)Nc3ccc(Oc4ccc(F)cc4)cc3)c2)cc1`, the half-inhibitory concentration (IC50) in data set [1] worked out at 1.3 µM.

`CCOS(=O)(=O)/C=C/c1ccc(OCc2ccc(COc3ccc(/C=C/S(=O)(=O)OCC)cc3)cc2)cc1`: the results for the half-maximal inhibitory concentration (IC50) in data set [1], in data set [2] and in data set [3] were 1.2 µM, 3.39 µM and 4.7 µM, respectively.

Regarding `CCOS(=O)(=O)/C=C/c1ccc(OCc2ccc(COc3ccc(/C=C/S(=O)(=O)OCC)cc3)c(C(=O)Nc3ccccc3)c2)cc1`, the IC50 in data set [1] amounted to 1.4 µM.

As for `CCOS(=O)(=O)/C=C/c1ccc(OCc2ccc(COc3ccc(/C=C/S(=O)(=O)OCC)cc3)c(C(=O)Nc3ccc(Oc4cccc(-c5ccccc5)c4)cc3)c2)cc1`, in data set [1], the IC50 was found to be 1.1 µM.

`CCOS(=O)(=O)/C=C/c1ccc(OCc2ccc(COc3ccc(/C=C/S(=O)(=O)OCC)cc3)c(C(=O)Nc3ccc(Oc4ccc(Cl)cc4)cc3)c2)cc1`: the half-inhibitory concentration (IC50) was 0.4 µM in data set [1], 2.97 µM in data set [2] and 0.94 µM in data set [3]. Besides, the apparent permeability (Papp) at 16 h, 20 µM in data set [4] worked out at 91 nm/s. Moreover, the Ratio IC50 in the data set listed under Homo sapiens [5] was in the range of 5 to 9.

With `CCOS(=O)(=O)/C=C/c1ccc(OCc2ccc(COc3ccc(/C=C/S(=O)(=O)OCC)cc3)c(C(=O)Nc3ccc(Oc4ccccc4F)cc3)c2)cc1`, in data set [1], the IC50 was determined as 0.85 µM.

For `CCOS(=O)(=O)/C=C/c1ccc(OC2CCC(Oc3ccc(/C=C/S(=O)(=O)OCC)cc3)CC2)cc1` (stereo not given), the 50% inhibitory concentration (IC50) in data set [1] worked out at 29.2 µM.

As for `CCOS(=O)(=O)/C=C/c1ccc(OCc2ccc(COc3ccc(/C=C/S(=O)(=O)OCC)cc3)c(C(=O)Nc3ccc(Oc4ccccc4)cc3)c2)cc1`, the concentration for half-maximal inhibition (IC50) in data set [1] was found to be 0.86 µM.

Consider `CCOS(=O)(=O)/C=C/c1ccc(OCc2ccc(COc3ccc(/C=C/S(=O)(=O)OCC)cc3)c(C(=O)Nc3ccc(C(C)C)cc3)c2)cc1`, for which the 50% inhibitory concentration (IC50) in data set [1] came out at 1.3 µM.

In the case of `CCOS(=O)(=O)/C=C/c1ccc(OCc2ccc(COc3ccc(/C=C/S(=O)(=O)OCC)cc3)c(C(=O)OC)c2)cc1`, the IC50 in data set [1] came out at 3.4 µM.

Broadly, the IC50 is the concentration needed to halve the response being measured. By Papp is commonly meant a coefficient for how fast a substance crosses the barrier.
